This note sets out measurements from US20240148745A1, “COMPOUNDS FOR USE IN PROGRESSIVE MULTIPLE SCLEROSIS” (FONDAZIONE CENTRO SAN RAFFAELE, priority 2021, published 2024).

SMILES strings stand for the structures. Where only a bound is given, the exact number is not on record here.

In one test the test system is rat primary OPC cultures. Nature of the test: Differentiation of rat primary OPC into MBP+ OLs. The note with it: 96 h, 4 days of differentiation, read-out: MBP+ differentiation (MBP+/SOX10+ OLs plus compounds / plus basal medium). It counts as cell-based. Summed up:
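Primary rat OPCs were differentiated for 4 days with compounds at […], in triplicate over 3 independent experiments. Cells were immunolabelled for CNPase, MBP and SOX10, and MBP+ oligodendrocytes were counted by imaging. Results are fold increase in MBP+/SOX10+ cells over basal medium; 9-cis-RA ([…]) was the positive control.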

The subject of test [1] is iPSC-derived glutamatergic neurons. Nature of the test: ROS (tBuOOH)-mediated neuroprotective assay on hNeu. It counts as cell-based, human. The protocol:
Neuroprotective experiments were performed using iPSC-derived glutamatergic neurons from 3 healthy controls cultured for 30-40 DIV. Cells were pre-treated for 24 h with […] of compounds, vehicle (DMSO) or 5 nM Mito-Q (mitoquinone) served as a positive control. On the next day cells were incubated for 2 h with 100 µM of tert-butyl peroxide (tBuOOH, Sigma), then the medium was replaced and the viability readout by CCK8 viability assay kit (Dojindo) was performed on the following day. The cell viability was expressed as normalized Z score and compared to tBuOOH-treated cells with nonparametric Kruskal-Wallis test with Dunn's multiple comparisons correction.
32 “Front runners” and 7 compounds from short list were tested on iPSC-derived neurons from three control lines in ROS-mediated assay to evaluate a neuroprotective potential of selected compounds. Three independent experiments were performed for CTR4 and CTR8, FIG. 20 (A, C), while two independent experiments were performed for CTR7, FIG. 20 (B).

The subject of test [2] is primary murine spinal cord culture. Nature of the test: Myelinating cell cultures from primary murine spinal cord. The format is cell-based, mouse. The note with it: 1 μM. The protocol: Single cell suspensions are prepared from spinal cord of mouse embryos (E13) (adapted from Thomson, 2008) and 1.5×10^5 cells/well were plated into 96 well plates. Over time, these cultures mature and form axons, which later myelinate. Using spinal cord tissue facilitates the quantification of mature MBP+ oligodendrocytes and newly formed myelin by in-house high-content imaging system (Operetta High Content Imaging System, Perkin Elmer) with a 20× lens. From each well, 25 fields in a 5×5 matrix were scanned. Thirty-two “Front Runners” compounds were tested in replicates of five at 1 μM/DMSO, while T3, benzotropine and clemastine were used as positive controls, DMSO as negative/solvent control. Two experimental paradigms were applied: “Early treatment”: exposure to experimental agent from DIV7 to DIV14; “Late treatment”: exposure to experimental agent from DIV14-DIV21. On DIV21, cultures were fixed and stained (myelin: MBP, axons: NF200; nuclei: Hoechst). Imaging data were analysed using CellProfiler and in-house generated analysis pipeline.
Thirty-two “Front Runners” compounds were tested in replicates of five at 1 μM/DMSO, while T3, benztropine and clemastine were used as positive controls, DMSO as negative/solvent control. Two experimental paradigms were applied: “Early treatment”: exposure to experimental agent from DIV7 to DIV14; “Late treatment”: exposure to experimental agent from DIV14-DIV21. […] In “Late treatment” paradigm in myelin area evaluation were identified Vanoxerine, Roxadustat, Tamibarotene, Drinabant, Progesterone, Saracatinib. In quantification of myelinated axons were identified Vanoxerine, Drinabant, Roxadustat.

For test [3], the system named is H9-derived human neural stem cells. Kind of test: Neurotoxic or regenerative effect screening (CellTiter-Glo). The format is cell-based. The note with it: 10 μM, three independent screenings. The protocol: H9-derived human neural stem cells (H9 hNSCs, Gibco) were cultured according to the manufacturer's instructions. Briefly, H9 hNSCs were expanded and subsequently differentiated in neurobasal medium, 2% B27, 1% Glutamax, and 1% penicillin/streptomycin, supplemented with 10 ng/ml BDNF (Peprotech), and 2 ng/ml recombinant human GDNF (Peprotech). After 7 days, 500 μM of db-cAMP (N6,2′-O-dibutyryladenosine 3′,5′-cyclic monophosphate, Sigma) was added.
The metabolic activity/viability of selected compounds (32 “Front Runners”+24 compounds from the “Short list”) was evaluated by CellTiter-Glo® Luminescent Cell Viability Assay. The primary screen of Front Runner List (32 compounds)+24 compounds from Short List) on H9-derived human neurons was performed at 10 μM concentration. The validation of hits from primary screen on H9-derived human neurons was performed at 10 μM concentration.
32 Front Runners were tested at 10 μM on H9-derived human neuronal cultures and viability was evaluated by CellTiter-Glo® Luminescent Cell Viability Assay.
On the technique in general: Cellular ATP, detected with luciferase, serves as a proxy for viable cell number.

Test [4] deals with murine cortical neurons (14 DIV). Kind of test: NMDA-mediated neuroprotective assay (CCK8 viability). It counts as cell-based, mouse. The note with it: 1 μM, 3 h pre-treatment, NMDA 8 μM 24 h, p<0.05. Summed up: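 Primary murine cortical neurons pre-treated with 1 μM compound for 3 or 24 h, then exposed to 8 μM NMDA for 24 h. Viability read by CCK-8 and expressed relative to NMDA-only control; vehicle 0.02% DMSO.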

Where [5] appears, read: control line CTR4, 1 μM, p<0.05.
Setting [6] is: summary for all three control lines.

`O=C(c1ccc(CN2CCOCC2)cc1)N1CCN(C2CC2)CC1` [Bavisant]: in the test on rat primary OPC cultures, the fold induction at 1 µM was over 1.6.

As for `CC(=O)N1CCN([C@H]2CCN(C(=O)N(C)[C@H](C)c3cc(C(F)(F)F)cc(C(F)(F)F)c3)[C@@H](c3ccc(F)cc3C)C2)CC1` [Casopitant], the fold induction at 1 µM with rat primary OPC cultures was over 1.6. Also, the “protection from tBuOOH insult” value in test [1] (setting [5]) was “protected from tBuOOH insult”; in test [1] (control line CTR7, p=0.07) it was “trend to significance”; in test [1] (setting [6]), “potential neuroprotective effect from tBuOOH-mediated insult”. Further, the myelin area entry in test [2] (Early treatment DIV7 to DIV14) is “identified”. In addition, in test [2] (Early treatment DIV7 to DIV14), the “quantification of myelinated axons” value is recorded as “identified”. Moreover, the “cumulative Z-scores of ATP production/viability” value in test [3] is on record as “potential hits”.

For the molecule `CCOC(=O)[C@@H](N)CCC(=O)N[C@@H](CSCc1ccccc1)C(=O)N[C@@H](C(=O)OCC)c1ccccc1.Cl` [Ezatiostat hydrochloride, Ezatiostat Hydrochloride], the “neuroprotection of viability/metabolic activity against NMDA” value in test [4] was “hit compounds”. The “protection from tBuOOH insult” value in test [1] (setting [6]) was “potential neuroprotective effect from tBuOOH-mediated insult”. Besides, the “cumulative Z-scores of ATP production/viability” value in test [3] is recorded as “potential hits”.

On to `C[C@H](Nc1cc(-c2cnn(C)c2)cc(Nc2cnccn2)n1)c1ccc(F)cc1` [NS-018], for which the “protection from tBuOOH insult” value is listed as “protected from tBuOOH insult” in test [1] (setting [5]); “potential neuroprotective compound from tBuOOH-mediated insult” in test [1] (control line CTR8, p<0.05); “potential neuroprotective effect from tBuOOH-mediated insult” in test [1] (setting [6]). Further, the myelin area result in test [2] (Early treatment DIV7 to DIV14) is reported as “identified”. In test [2] (Early treatment DIV7 to DIV14), the “quantification of myelinated axons” value is recorded as “identified”.

As to `NCCCC[C@H](NC(=O)[C@@H](Cc1cc(Br)c(O)c(Br)c1)NC(=O)N1CCC(N2Cc3ccccc3NC2=O)CC1)C(=O)N1CCN(c2ccncc2)CC1` [Olcegepant], the fold induction at 1 µM in the test with rat primary OPC cultures is over 1.6. The “protection from tBuOOH insult” value in test [1] (setting [6]) is reported as “potential neuroprotective effect from tBuOOH-mediated insult”.

For the molecule `O=C(NOC[C@H](O)CO)c1ccc(F)c(F)c1Nc1ccc(I)cc1F` [PD-0325901], the fold induction at 1 µM in the test on rat primary OPC cultures is over 1.6. Moreover, in test [3], the “cumulative Z-scores of ATP production/viability” value is reported as “potential hits”.

Turning to `CC(=O)[C@H]1CC[C@H]2[C@@H]3CCC4=CC(=O)CC[C@]4(C)[C@H]3CC[C@]12C` [Progesterone], the “neuroprotection of viability/metabolic activity against NMDA” value in test [4] is listed as “hit compounds”. For the same molecule, the myelin area result in test [2] (Early treatment DIV7 to DIV14) and in test [2] (Late treatment DIV14-DIV21) was “identified” in each case.

In the case of `CC1(C)CCC(C)(C)c2cc(NC(=O)c3ccc(C(=O)O)cc3)ccc21` [Tamibarotene], in the test on rat primary OPC cultures, the fold induction at 1 µM was over 1.6. The “neuroprotection of viability/metabolic activity against NMDA” value in test [4] is “hit compounds”. The myelin area result in test [2] (Early treatment DIV7 to DIV14) and in test [2] (Late treatment DIV14-DIV21) was “identified” in each case.
